The target in assay [1] is Frizzled-2 (Rattus norvegicus) (UniProt Q08464). Put plainly: Antagonist activity at Wnt3a-stimulated rat frizzled-2 expressed in […] cells up to 10 uM incubated for 24 hrs by luciferase reporter gene assay. The note with it: dose microM <=10, time 24.0 hrs. Format: cell-based.
For assay [2], the target named is Frizzled-1 (Homo sapiens) (UniProt Q9UP38). Put plainly: Antagonist activity at Wnt3a-stimulated frizzled-1 (unknown origin) expressed in human HEK293superTOP flash cells at 10 nM incubated for 24 hrs by luciferase reporter gene assay. Format: functional, cell-based. The note with it: HEK293.
In assay [3] the target is Frizzled-2 (Homo sapiens) (UniProt Q14332). Put plainly: Antagonist activity at Wnt3a-stimulaed frizzled-2 (unknown origin) expressed in human HEK293superTOP flash cells at 1 nM incubated for 24 hrs by luciferase reporter gene assay (reference value: 0%). Format: functional, cell-based.
For assay [4], the target named is Frizzled-1 (Homo sapiens) (UniProt Q9UP38). Put plainly: Antagonist activity at Wnt3a-stimulaed frizzled-1 (unknown origin) expressed in human HEK293superTOP flash cells at 1 nM incubated for 24 hrs by luciferase reporter gene assay (reference value: 0%). Format: functional, cell-based.
The target of assay [5] is Frizzled-1 (Rattus norvegicus) (UniProt Q08463). Put plainly: Antagonist activity at Wnt3a-stimulated rat frizzled-1 expressed in African green monkey COS7 cells up to 10 uM incubated for 24 hrs by luciferase reporter gene assay. The note with it: dose microM <=10, time 24.0 hrs. Format: cell-based.
For assay [6], the target named is Frizzled-2 (Homo sapiens) (UniProt Q14332). Put plainly: Antagonist activity at Wnt3a-stimulated frizzled-2 (unknown origin) expressed in human HEK293superTOP flash cells at 10 nM incubated for 24 hrs by luciferase reporter gene assay. Format: functional, cell-based. Conditions: HEK293.
Assay [7] concerns the target Frizzled-2 (Rattus norvegicus) (UniProt Q08464). Put plainly: Antagonist activity at Wnt3a-stimulated rat frizzled-2 expressed in African green monkey COS7 cells up to 10 uM incubated for 24 hrs by luciferase reporter gene assay. Format: cell-based. The note with it: dose microM <=10, time 24.0 hrs.
Assay [8] concerns the target Frizzled-1 (Rattus norvegicus) (UniProt Q08463). Put plainly: Antagonist activity at Wnt3a-stimulated rat frizzled-1 expressed in CHO cells up to 10 uM incubated for 24 hrs by luciferase reporter gene assay. Format: cell-based. The note with it: dose microM <=10, time 24.0 hrs.

Activity calls are given as the source filed them. The rule behind the calls is not given here. Where a SMILES comes first, the peptide text is derived from it.

Frizzled-2 (Homo sapiens), sequence (Q14332 24-565 limits assumed): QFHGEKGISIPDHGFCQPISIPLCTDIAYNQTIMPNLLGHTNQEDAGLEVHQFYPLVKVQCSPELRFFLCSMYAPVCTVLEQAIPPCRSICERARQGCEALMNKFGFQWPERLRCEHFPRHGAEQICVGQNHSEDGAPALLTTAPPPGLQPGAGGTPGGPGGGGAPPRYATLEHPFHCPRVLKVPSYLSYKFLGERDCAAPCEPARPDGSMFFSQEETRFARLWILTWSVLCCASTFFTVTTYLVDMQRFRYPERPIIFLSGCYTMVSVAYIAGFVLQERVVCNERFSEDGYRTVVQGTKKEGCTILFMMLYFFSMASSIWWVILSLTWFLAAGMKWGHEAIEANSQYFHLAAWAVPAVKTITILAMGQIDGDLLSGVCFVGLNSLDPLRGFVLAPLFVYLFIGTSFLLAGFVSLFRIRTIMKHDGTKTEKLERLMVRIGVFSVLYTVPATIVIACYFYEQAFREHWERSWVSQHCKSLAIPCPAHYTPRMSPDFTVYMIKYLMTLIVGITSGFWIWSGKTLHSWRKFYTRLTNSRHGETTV
Frizzled-1 (Rattus norvegicus), sequence (Q08463 whole entry): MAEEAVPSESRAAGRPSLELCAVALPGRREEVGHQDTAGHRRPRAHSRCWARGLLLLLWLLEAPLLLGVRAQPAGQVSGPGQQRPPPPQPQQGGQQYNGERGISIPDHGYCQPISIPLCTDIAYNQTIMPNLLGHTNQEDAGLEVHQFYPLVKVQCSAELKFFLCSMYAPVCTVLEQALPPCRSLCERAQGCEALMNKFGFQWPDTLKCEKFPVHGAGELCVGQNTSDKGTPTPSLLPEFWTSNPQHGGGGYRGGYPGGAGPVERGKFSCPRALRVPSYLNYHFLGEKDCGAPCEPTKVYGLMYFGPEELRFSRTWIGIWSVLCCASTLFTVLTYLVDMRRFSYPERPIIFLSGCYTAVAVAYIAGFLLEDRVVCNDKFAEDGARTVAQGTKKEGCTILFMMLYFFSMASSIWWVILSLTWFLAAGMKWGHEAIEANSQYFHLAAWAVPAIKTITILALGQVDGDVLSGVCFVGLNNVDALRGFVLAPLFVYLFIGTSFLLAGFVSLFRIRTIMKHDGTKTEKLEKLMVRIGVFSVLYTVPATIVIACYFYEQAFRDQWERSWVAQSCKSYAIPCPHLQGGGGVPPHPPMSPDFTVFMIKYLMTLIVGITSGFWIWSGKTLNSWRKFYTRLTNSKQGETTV
Frizzled-2 (Rattus norvegicus), sequence (Q08464 29-570 limits assumed): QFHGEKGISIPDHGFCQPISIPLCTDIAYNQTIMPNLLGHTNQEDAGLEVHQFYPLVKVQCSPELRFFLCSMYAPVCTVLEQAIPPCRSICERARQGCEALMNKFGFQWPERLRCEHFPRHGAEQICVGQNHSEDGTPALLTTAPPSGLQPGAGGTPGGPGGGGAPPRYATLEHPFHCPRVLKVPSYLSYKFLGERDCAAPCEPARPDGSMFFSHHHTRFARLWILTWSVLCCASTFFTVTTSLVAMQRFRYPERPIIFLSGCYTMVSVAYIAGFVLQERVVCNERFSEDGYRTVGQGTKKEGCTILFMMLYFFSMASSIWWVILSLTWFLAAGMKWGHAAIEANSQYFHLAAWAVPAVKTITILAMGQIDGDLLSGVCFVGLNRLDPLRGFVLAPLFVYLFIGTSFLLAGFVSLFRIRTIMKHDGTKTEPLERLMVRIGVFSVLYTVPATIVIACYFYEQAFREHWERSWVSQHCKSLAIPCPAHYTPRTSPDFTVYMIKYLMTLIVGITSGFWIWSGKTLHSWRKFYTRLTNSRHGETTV
Frizzled-1 (Homo sapiens), sequence (Q9UP38 70-647 limits assumed): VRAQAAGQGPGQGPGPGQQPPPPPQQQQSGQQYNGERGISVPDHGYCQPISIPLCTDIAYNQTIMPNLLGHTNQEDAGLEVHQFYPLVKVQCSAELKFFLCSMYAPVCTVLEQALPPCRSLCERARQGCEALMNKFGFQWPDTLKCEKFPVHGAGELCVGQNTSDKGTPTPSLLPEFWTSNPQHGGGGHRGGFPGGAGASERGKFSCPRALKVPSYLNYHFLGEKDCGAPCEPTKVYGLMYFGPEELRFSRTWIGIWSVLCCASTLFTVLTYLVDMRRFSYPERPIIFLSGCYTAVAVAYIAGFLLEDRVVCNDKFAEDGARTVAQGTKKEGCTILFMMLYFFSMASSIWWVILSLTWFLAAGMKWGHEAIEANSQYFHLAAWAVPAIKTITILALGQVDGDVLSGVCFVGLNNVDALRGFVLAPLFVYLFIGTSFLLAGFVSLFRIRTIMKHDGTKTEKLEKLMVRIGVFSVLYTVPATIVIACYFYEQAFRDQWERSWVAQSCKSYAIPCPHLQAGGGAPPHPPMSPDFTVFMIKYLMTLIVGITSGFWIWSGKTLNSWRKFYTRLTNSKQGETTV

With `CSCC[C@H](NC(=O)CNC(=O)[C@H](CCC(=O)O)NC(=O)[C@H](CO)NC(=O)[C@@H](NC(=O)[C@H](CCCCN)NC(=O)[C@H](C)NC(=O)[C@H](CS)NC(C)=O)[C@@H](C)O)C(=O)N[C@@H](CC(=O)O)C(=O)NCC(=O)N[C@@H](CS)C(=O)N[C@@H](CCC(=O)O)C(=O)N[C@@H](CC(C)C)C(N)=O` (Ac-CAKTSEGMDGCEL-NH2), the inhibition entry in assay [1], in assay [2], in assay [5], in assay [6], in assay [7] and in assay [8] was “inactive” each time. Also, the inhibition in assay [3] (HEK293, filed as antagonist) was determined as 79.5%; in assay [4] (HEK293, filed as antagonist) it was 68%.
Turning to `CSCC[C@H](NC(=O)CNC(=O)[C@H](C)NC(=O)[C@H](CO)NC(=O)[C@@H](NC(=O)[C@H](CCCCN)NC(=O)[C@H](CC(N)=O)NC(=O)[C@H](CS)NC(C)=O)[C@@H](C)O)C(=O)N[C@@H](CC(=O)O)C(=O)NCC(=O)N[C@@H](CS)C(=O)N[C@@H](CCC(=O)O)C(=O)N[C@@H](CC(C)C)C(N)=O` (Ac-CNKTSAGMDGCEL-NH2), the inhibition entry in assay [1], in assay [2], in assay [5], in assay [6], in assay [7] and in assay [8] was “inactive” throughout. Besides, the inhibition in assay [3] (HEK293, filed as antagonist) is 84.7%; in assay [4] (HEK293, filed as antagonist), 70.8%.
Consider Ac-CNKTSEGMDGAEL-NH2, for which the inhibition entry in assay [1], in assay [2], in assay [5], in assay [6], in assay [7] and in assay [8] was “inactive” in each case. For the same compound, the inhibition in assay [3] (HEK293, filed as antagonist) turned out to be 84.9%; in assay [4] (HEK293, filed as antagonist) it was 67.2%.
With Ac-ANKTSEGMDGCEL-NH2, the inhibition result in assay [1], in assay [2], in assay [5], in assay [6], in assay [7] and in assay [8] was “inactive” each time. The inhibition in assay [3] (HEK293, filed as antagonist) turned out to be 82.6%; in assay [4] (HEK293, filed as antagonist) it was 70.8%.
Turning to `CC[C@H](C)[C@H](NC(=O)CNC(=O)[C@H](Cc1cnc[nH]1)NC(=O)[C@H](CO)NC(=O)[C@H](CO)NC(=O)[C@@H](NC(=O)[C@H](CC(N)=O)NC(=O)[C@@H](N)CS)C(C)C)C(=O)N[C@@H](CC(=O)O)C(=O)NCC(=O)N[C@@H](CS)C(=O)N[C@@H](CC(=O)O)C(=O)N[C@@H](CC(C)C)C(=O)O` (H-CNVSSHGIDGCDL-OH), the inhibition result in assay [1], in assay [2], in assay [5], in assay [6], in assay [7] and in assay [8] was “inactive” each time. Besides, the inhibition in assay [3] (HEK293, filed as antagonist) is 62.4%; in assay [4] (HEK293, filed as antagonist), 45.3%.
On to `CSCC[C@H](NC(=O)CNC(=O)[C@H](CCC(=O)O)NC(=O)[C@H](CO)NC(=O)[C@H](C)NC(=O)[C@H](CCCCN)NC(=O)[C@H](CC(N)=O)NC(=O)[C@H](CS)NC(C)=O)C(=O)N[C@@H](CC(=O)O)C(=O)NCC(=O)N[C@@H](CS)C(=O)N[C@@H](CCC(=O)O)C(=O)N[C@@H](CC(C)C)C(N)=O` (Ac-CNKASEGMDGCEL-NH2), for which the inhibition result in assay [1], in assay [2], in assay [5], in assay [6], in assay [7] and in assay [8] was “inactive” each time. The inhibition in assay [3] (HEK293, filed as antagonist) stood at 59.4%; in assay [4] (HEK293), 28.1%.
As to `CSCC[C@H](NC(=O)CNC(=O)[C@H](CCC(=O)O)NC(=O)[C@H](CO)NC(=O)[C@@H](NC(=O)[C@H](CCCCN)NC(=O)[C@H](CC(N)=O)NC(=O)[C@H](CS)NC(C)=O)[C@@H](C)O)C(=O)N[C@@H](CC(=O)O)C(=O)NCC(=O)N[C@@H](CS)C(=O)N[C@@H](C)C(=O)N[C@@H](C)C(N)=O` (Ac-CNKTSEGMDGCAA-NH2), the inhibition result in assay [1], in assay [2], in assay [5], in assay [6], in assay [7] and in assay [8] was “inactive” in each case. Moreover, the inhibition in assay [3] (HEK293, filed as antagonist) was 74.3%; in assay [4] (HEK293, filed as antagonist) it was 66.8%.
On to `CSCC[C@H](NC(=O)CNC(=O)[C@H](CCC(=O)O)NC(=O)[C@H](CO)NC(=O)[C@@H](NC(=O)[C@H](CCCCN)NC(=O)[C@H](CC(N)=O)NC(=O)[C@H](CS)NC(C)=O)[C@@H](C)O)C(=O)N[C@@H](C)C(=O)NCC(=O)N[C@@H](CS)C(=O)N[C@@H](CCC(=O)O)C(=O)N[C@@H](CC(C)C)C(N)=O` (Ac-CNKTSEGMAGCEL-NH2), for which the inhibition entry in assay [1], in assay [2], in assay [5], in assay [6], in assay [7] and in assay [8] was “inactive” throughout. Moreover, the inhibition in assay [3] (HEK293, filed as antagonist) worked out at 60.5%; in assay [4] (HEK293, filed as antagonist), 40.5%.
Take `CSCC[C@H](NC(=O)[C@H](C)NC(=O)[C@H](CCC(=O)O)NC(=O)[C@H](CO)NC(=O)[C@H](C)NC(=O)[C@H](CCCCN)NC(=O)[C@H](CC(N)=O)NC(=O)[C@H](CS)NC(C)=O)C(=O)N[C@@H](C)C(=O)NCC(=O)N[C@@H](CS)C(=O)N[C@@H](CCC(=O)O)C(=O)N[C@@H](CC(C)C)C(N)=O` (Ac-CNKASEAMAGCEL-NH2): the inhibition entry in assay [1], in assay [2], in assay [5], in assay [6], in assay [7] and in assay [8] was “inactive” throughout. Further, the inhibition in assay [3] (HEK293) turned out to be 17.5%; in assay [4] (HEK293), 11.2%.
Consider `CSCC[C@H](NC(=O)CNC(=O)[C@H](CCC(=O)O)NC(=O)[C@H](CO)NC(=O)[C@@H](NC(=O)[C@H](C)NC(=O)[C@H](CC(N)=O)NC(=O)[C@H](CS)NC(C)=O)[C@@H](C)O)C(=O)N[C@@H](CC(=O)O)C(=O)NCC(=O)N[C@@H](CS)C(=O)N[C@@H](CCC(=O)O)C(=O)N[C@@H](CC(C)C)C(N)=O` (Ac-CNATSEGMDGCEL-NH2), for which the inhibition result in assay [1], in assay [2], in assay [5], in assay [6], in assay [7] and in assay [8] was “inactive” each time. Besides, the inhibition amounted to 84.9% in assay [3] (HEK293, filed as antagonist) and 70.8% in assay [4] (HEK293, filed as antagonist).
Take `CC(=O)N[C@@H](CS)C(=O)N[C@@H](CC(N)=O)C(=O)N[C@@H](CCCCN)C(=O)N[C@H](C(=O)N[C@@H](CO)C(=O)N[C@@H](CCC(=O)O)C(=O)NCC(=O)N[C@@H](C)C(=O)N[C@@H](CC(=O)O)C(=O)NCC(=O)N[C@@H](CS)C(=O)N[C@@H](CCC(=O)O)C(=O)N[C@@H](CC(C)C)C(N)=O)[C@@H](C)O` (Ac-CNKTSEGADGCEL-NH2): the inhibition entry in assay [1], in assay [2], in assay [5], in assay [6], in assay [7] and in assay [8] was “inactive” each time. In addition, the inhibition was determined as 85% in assay [3] (HEK293, filed as antagonist) and 67.6% in assay [4] (HEK293, filed as antagonist).
As for `CSCC[C@H](NC(=O)CNC(=O)[C@H](CCC(=O)O)NC(=O)[C@H](CO)NC(=O)[C@@H](NC(=O)[C@H](CCCCN)NC(=O)[C@H](CC(N)=O)NC(=O)[C@H](CS)NC(C)=O)[C@@H](C)O)C(=O)N[C@@H](CC(=O)O)C(=O)NCC(=O)N[C@@H](CS)C(=O)N[C@@H](CCC(=O)O)C(=O)N[C@@H](C)C(N)=O` (Ac-CNKTSEGMDGCEA-NH2), the inhibition entry in assay [1], in assay [2], in assay [5], in assay [6], in assay [7] and in assay [8] was “inactive” each time. The inhibition in assay [3] (HEK293, filed as antagonist) is 86.5%; in assay [4] (HEK293, filed as antagonist), 65.9%.
Regarding `CSCC[C@H](NC(=O)CNC(=O)[C@H](CCC(=O)O)NC(=O)[C@H](CO)NC(=O)[C@@H](NC(=O)[C@H](CCCCN)NC(=O)[C@H](CC(N)=O)NC(=O)[C@H](CS)NC(C)=O)[C@@H](C)O)C(=O)N[C@@H](CC(=O)O)C(=O)N[C@@H](C)C(=O)N[C@@H](CS)C(=O)N[C@@H](CCC(=O)O)C(=O)N[C@@H](CC(C)C)C(N)=O` (Ac-CNKTSEGMDACEL-NH2), the inhibition result in assay [1], in assay [2], in assay [5], in assay [6], in assay [7] and in assay [8] was “inactive” each time. Moreover, the inhibition amounted to 83.3% in assay [3] (HEK293, filed as antagonist) and 69.9% in assay [4] (HEK293, filed as antagonist).

Values taken from ChEMBL document CHEMBL4806963, “Antagonistic peptides for frizzled-1 and frizzled-2” (2013).
